In patent publication US12281057B2 (VERTEX PHARMACEUTICALS INCORPORATED, priority 2017, dated 2025) one finds IC50 data, which are given here for 29 compounds.

pIC50: −log10 of the molar value.

truncated form of human NaV 1.8 with full channel activity, sequence (Q9Y5Y9 126-1722 limits assumed): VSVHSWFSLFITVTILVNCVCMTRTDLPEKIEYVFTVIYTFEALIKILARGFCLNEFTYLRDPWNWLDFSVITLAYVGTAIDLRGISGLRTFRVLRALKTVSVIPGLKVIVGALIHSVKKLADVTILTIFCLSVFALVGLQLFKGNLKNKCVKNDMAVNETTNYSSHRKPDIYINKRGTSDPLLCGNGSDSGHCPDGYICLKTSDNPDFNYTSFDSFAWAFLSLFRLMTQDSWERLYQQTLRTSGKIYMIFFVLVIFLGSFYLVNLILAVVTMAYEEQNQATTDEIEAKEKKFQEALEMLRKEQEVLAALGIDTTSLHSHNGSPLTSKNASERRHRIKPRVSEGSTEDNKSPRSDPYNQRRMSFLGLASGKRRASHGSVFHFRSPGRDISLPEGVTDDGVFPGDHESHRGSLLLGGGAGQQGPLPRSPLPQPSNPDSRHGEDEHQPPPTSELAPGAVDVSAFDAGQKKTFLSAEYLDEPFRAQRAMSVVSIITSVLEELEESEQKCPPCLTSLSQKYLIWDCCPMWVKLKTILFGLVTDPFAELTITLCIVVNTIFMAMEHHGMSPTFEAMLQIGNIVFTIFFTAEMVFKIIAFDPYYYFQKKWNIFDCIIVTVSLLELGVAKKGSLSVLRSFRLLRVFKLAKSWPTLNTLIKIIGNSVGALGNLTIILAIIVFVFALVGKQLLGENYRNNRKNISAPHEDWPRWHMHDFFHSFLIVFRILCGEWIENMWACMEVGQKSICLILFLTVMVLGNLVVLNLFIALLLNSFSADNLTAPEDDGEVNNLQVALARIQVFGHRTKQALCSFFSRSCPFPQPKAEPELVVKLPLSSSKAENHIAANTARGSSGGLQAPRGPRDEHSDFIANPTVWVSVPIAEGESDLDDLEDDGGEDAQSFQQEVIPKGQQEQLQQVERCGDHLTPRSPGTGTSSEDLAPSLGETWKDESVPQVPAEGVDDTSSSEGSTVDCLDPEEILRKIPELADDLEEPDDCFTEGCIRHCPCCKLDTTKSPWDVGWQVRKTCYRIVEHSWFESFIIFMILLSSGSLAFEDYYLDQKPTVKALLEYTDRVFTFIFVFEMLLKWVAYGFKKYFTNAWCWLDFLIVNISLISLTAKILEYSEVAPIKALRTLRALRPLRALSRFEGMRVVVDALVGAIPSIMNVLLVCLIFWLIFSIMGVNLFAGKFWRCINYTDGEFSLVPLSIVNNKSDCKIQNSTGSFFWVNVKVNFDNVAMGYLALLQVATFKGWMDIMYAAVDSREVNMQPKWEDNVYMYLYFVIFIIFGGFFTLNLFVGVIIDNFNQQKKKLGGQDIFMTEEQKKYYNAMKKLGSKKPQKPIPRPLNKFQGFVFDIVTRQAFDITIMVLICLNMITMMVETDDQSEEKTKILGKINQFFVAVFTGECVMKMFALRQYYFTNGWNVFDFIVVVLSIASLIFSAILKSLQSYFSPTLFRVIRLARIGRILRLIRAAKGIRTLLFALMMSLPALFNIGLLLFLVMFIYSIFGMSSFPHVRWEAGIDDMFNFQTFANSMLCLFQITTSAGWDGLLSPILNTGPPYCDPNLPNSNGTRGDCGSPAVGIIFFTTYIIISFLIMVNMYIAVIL

The target of the first assay is truncated form of human NaV 1.8 with full channel activity (Homo sapiens, UniProt Q9Y5Y9). Briefly: E-VIPR Assay Method A for detecting and measuring Nav inhibition (HEK cells, membrane potential FRET dyes, electrical stimulation). The assay is classed as cell-based. The conditions noted are these: HEK cells expressing human NaV 1.8, HS (human serum) in compound loading buffer, 11 point dose response, top dose 3 μM, Table 20, read-out: Nav 1.8 MedChem Optical Assay EVIPR Assay Method A HS IC50. An outline of the steps:
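HEK cells expressing truncated human NaV1.8, loaded with CC2-DMPE/DiSBAC6(3) FRET dyes, incubated 30 min at room temp with compound (0.625% DMSO), then electrically stimulated (1.25 A biphasic, 10 Hz, 10 s). Inhibition from 460/580 nm ratio Rf/Ri, normalised to positive and DMSO controls.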
For the compound `[2H]C([2H])([2H])Oc1cc(OC(F)(F)F)ccc1Oc1ccc(C(F)(F)F)c(F)c1C(=O)Nc1ccc(F)c(C(N)=O)c1` [Compound 1, N-(3-carbamoyl-4-fluoro-phenyl)-2-fluoro-6-[2-(trideuteriomethoxy)-4-(trifluoromethoxy)phenoxy]-3-(trifluoromethyl)benzamide], the negative-log IC50 (pIC50) was 9.15.
The same measure, in the same setting: the result for `[2H]C([2H])([2H])Oc1cc(OC(F)(F)F)ccc1Oc1ccc(C(F)(F)F)c(F)c1C(=O)Nc1ccnc(C(N)=O)c1` [Compound 6, 4-[[2-fluoro-6-[2-(trideuteriomethoxy)-4-(trifluoromethoxy)phenoxy]-3-(trifluoromethyl)benzoyl]amino]pyridine-2-carboxamide] reads 8.52; that for `COc1cc(OC(F)(F)F)ccc1Oc1ccc(C(F)F)c(F)c1C(=O)Nc1ccc(F)c(C(N)=O)c1` [Compound 7, N-(3-carbamoyl-4-fluoro-phenyl)-3-(difluoromethyl)-2-fluoro-6-[2-methoxy-4-(trifluoromethoxy)phenoxy]benzamide], 8.52.
Still for that read-out and setting: the same measure for `COc1cc(OC(F)(F)F)ccc1Oc1ccc(C(F)(F)F)c(F)c1C(=O)Nc1ccc(F)c(C(N)=O)c1` [Compound 2, N-(3-carbamoyl-4-fluoro-phenyl)-2-fluoro-6-[2-methoxy-4-(trifluoromethoxy)phenoxy]-3-(trifluoromethyl)benzamide]: 9.00.

The same assay, now with this note: HEK cells expressing human NaV 1.8, HS (human serum) in compound loading buffer, 11 point dose response, top dose 3 μM, Table 20A, read-out: Nav 1.8 MedChem Optical Assay EVIPR Assay Method A HS IC50.
Take `COc1cc(OC(F)(F)F)ccc1Oc1cc(C2(C)CC2)ncc1C(=O)Nc1ccc(F)c(C(N)=O)c1` [Compound 102, N-(3-Carbamoyl-4-fluoro-phenyl)-4-[2-methoxy-4-(trifluoromethoxy)phenoxy]-6-(1-methylcyclopropyl)pyridine-3-carboxamide]: the pIC50 was 7.66.
Turning to `COc1cc(OC(F)(F)F)ccc1Oc1cnc(C(F)(F)F)c(OC)c1C(=O)Nc1cc(C(N)=O)ncc1C` [Compound 144, N-(2-Carbamoyl-5-methyl-4-pyridyl)-3-methoxy-5-[2-methoxy-4-(trifluoromethoxy)phenoxy]-2-(trifluoromethyl)pyridine-4-carboxamide], the negative logarithm of the IC50 (pIC50) is 7.64.
On the same count and under the same terms, the result for `CCOc1c(C(F)(F)F)ncc(Oc2ccc(OC(F)(F)F)cc2OC)c1C(=O)Nc1ccnc(C(N)=O)c1` [Compound 206, N-(2-Carbamoyl-4-pyridyl)-3-ethoxy-5-[2-methoxy-4-(trifluoromethoxy)phenoxy]-2-(trifluoromethyl)pyridine-4-carboxamide] reads 7.35; that for `COc1cc(OC(F)(F)F)ccc1Oc1ccc(Cl)c(F)c1C(=O)Nc1cc(C(N)=O)ncc1C` [Compound 189, 4-[[3-Chloro-2-fluoro-6-[2-methoxy-4-(trifluoromethoxy)phenoxy]benzoyl]amino]-5-methyl-pyridine-2-carboxamide], 8.22; that for `NC(=O)c1cc(NC(=O)c2cnc(C3CC3)cc2Oc2ccc(OC(F)(F)F)c(F)c2)ccc1F` [Compound 42, N-(3-Carbamoyl-4-fluoro-phenyl)-6-cyclopropyl-4-[3-fluoro-4-(trifluoromethoxy)phenoxy]pyridine-3-carboxamide], 6.40.
The same measure, in the same setting: the same measure for `COc1cc(OC(F)(F)F)ccc1Oc1ccc(C(F)(F)F)c(F)c1C(=O)Nc1cc(C(N)=O)c(F)cc1C` [Compound 118]: 7.00.
With `[2H]C([2H])([2H])Oc1cc(OC(F)(F)F)ccc1Oc1cc(C(F)(F)F)cc(C(F)(F)F)c1C(=O)Nc1ccc(C(N)=O)nc1` [Compound 176, 5-[[2-[2-(Trideuteriomethoxy)-4-(trifluoromethoxy)phenoxy]-4,6-bis(trifluoromethyl)benzoyl]amino]pyridine-2-carboxamide], the pIC50 is 6.72.
As for `NC(=O)c1ccc(NC(=O)c2c(Cl)cc(Cl)cc2Oc2ccc(F)cc2)cn1` [Compound 181, 5-[[2,4-Dichloro-6-(4-fluorophenoxy)benzoyl]amino]pyridine-2-carboxamide], the negative-log IC50 (pIC50) is 5.68.
For the compound `COc1cc(OC(F)(F)F)ccc1Oc1cc(C(F)(F)F)ncc1C(=O)Nc1ccnc(C(N)=O)c1` [Compound 34, N-(2-Carbamoyl-4-pyridyl)-4-[2-methoxy-4-(trifluoromethoxy)phenoxy]-6-(trifluoromethyl)pyridine-3-carboxamide], the negative-log IC50 (pIC50) is 7.08.
Take `COc1cc(F)ccc1Oc1cc(OC(F)(F)F)ccc1C(=O)Nc1ccnc(C(N)=O)c1` [Compound 148, 4-[[2-(4-Fluoro-2-methoxy-phenoxy)-4-(trifluoromethoxy)benzoyl]amino]pyridine-2-carboxamide]: the negative logarithm of the IC50 (pIC50) was 6.07.
`NC(=O)c1cc(NC(=O)c2c(F)c(C(F)(F)F)cc(OCc3ccccc3)c2Oc2ccc(OC(F)(F)F)cc2)ccc1F` [Compound 217, 5-Benzyloxy-N-(3-carbamoyl-4-fluoro-phenyl)-2-fluoro-6-[4-(trifluoromethoxy)phenoxy]-3-(trifluoromethyl)benzamide]: the negative logarithm of the IC50 (pIC50) was 5.96.
For `COc1cc(OC(F)(F)F)ccc1Oc1cc(C2C[C@@H]2C)ncc1C(=O)Nc1ccc(F)c(C(N)=O)c1` (mixture of isomers) [Compound 106, Racemic trans-N-(3-Carbamoyl-4-fluoro-phenyl)-4-[2-methoxy-4-(trifluoromethoxy)phenoxy]-6-(2-methylcyclopropyl)pyridine-3-carboxamide], the pIC50 was 7.82.
In the case of `NC(=O)c1cc(NC(=O)c2c(Oc3ccc(OC(F)(F)F)cc3F)ccc(C(F)(F)F)c2F)ccn1` [Compound 90, 4-[[2-fluoro-6-[2-fluoro-4-(trifluoromethoxy)phenoxy]-3-(trifluoromethyl)benzoyl]amino]pyridine-2-carboxamide], the pIC50 was 7.42.
Still for that read-out and setting: the result for `COc1cc(OC(F)(F)F)ccc1Oc1ccc(F)c(F)c1C(=O)Nc1ccc(F)c(C(N)=O)c1` [Compound 55, N-(3-Carbamoyl-4-fluoro-phenyl)-2,3-difluoro-6-[2-methoxy-4-(trifluoromethoxy)phenoxy]benzamide] reads 7.74; that for `COc1ncccc1Oc1cc(Cl)c(Cl)cc1C(=O)Nc1ccc(F)c(C(N)=O)c1` [Compound 35, N-(3-carbamoyl-4-fluoro-phenyl)-4,5-dichloro-2-[(2-methoxy-3-pyridyl)oxy]benzamide], 6.60.
The same measure, in the same setting: the result for `COc1cc(OC(F)(F)F)ccc1Oc1ccc(C(F)(F)F)c(F)c1C(=O)Nc1cccc(C(N)=O)n1` [Compound 169, 6-[[2-Fluoro-6-[2-methoxy-4-(trifluoromethoxy)phenoxy]-3-(trifluoromethyl)benzoyl]amino]pyridine-2-carboxamide] reads 6.95; that for `COc1nc(Cl)ccc1Oc1ccc(C(F)(F)F)c(F)c1C(=O)Nc1ccnc(C(N)=O)c1` [Compound 303, 4-(6-((6-chloro-2-methoxypyridin-3-yl)oxy)-2-fluoro-3-(trifluoromethyl)benzamido)picolinamide], 6.72; that for `COc1cc(OC(F)(F)F)ccc1Oc1cc(C2CC2(F)F)ncc1C(=O)Nc1ccnc(C(N)=O)c1` (centres unmarked) [Compound 107, N-(2-Carbamoyl-4-pyridyl)-6-(2,2-difluorocyclopropyl)-4-[2-methoxy-4-(trifluoromethoxy)phenoxy]pyridine-3-carboxamide], 6.91.
Turning to `[2H]C([2H])([2H])Oc1c(Oc2ccc(OC(F)(F)F)c(F)c2C(=O)Nc2cc(C(N)=O)ncc2C)ccc(OC(F)(F)F)c1F` [Compound 231, 4-[[2-Fluoro-6-[3-fluoro-2-(trideuteriomethoxy)-4-(trifluoromethoxy)phenoxy]-3-(trifluoromethoxy)benzoyl]amino]-5-methyl-pyridine-2-carboxamide], the pIC50 is 8.05.
Consider `COc1nc(Cl)ccc1Oc1ccc(C(F)(F)F)c(F)c1C(=O)Nc1ccc(F)c(C(N)=O)c1` [Compound 54, N-(3-Carbamoyl-4-fluoro-phenyl)-6-[(6-chloro-2-methoxy-3-pyridyl)oxy]-2-fluoro-3-(trifluoromethyl)benzamide], for which the negative-log IC50 (pIC50) is 8.15.
As to `COc1ccc(Oc2ccc(C(F)(F)F)c(F)c2C(=O)Nc2ccc(F)c(C(N)=O)c2)cn1` [Compound 56, N-(3-carbamoyl-4-fluoro-phenyl)-2-fluoro-6-[(6-methoxy-3-pyridyl)oxy]-3-(trifluoromethyl)benzamide], the negative-log IC50 (pIC50) was 6.59.
`[2H]C([2H])([2H])Oc1c(Oc2ccc(C(F)F)c(F)c2C(=O)Nc2ccnc(C(N)=O)c2)ccc(OC(F)(F)F)c1F` [Compound 235, 4-[[3-(Difluoromethyl)-2-fluoro-6-[3-fluoro-2-(trideuteriomethoxy)-4-(trifluoromethoxy)phenoxy]benzoyl]amino]pyridine-2-carboxamide]: the pIC50 is 8.30.
Still for that read-out and setting: the same measure for `COc1cc(OC(F)(F)F)ccc1Oc1cc(C(F)(F)F)cc(F)c1C(=O)Nc1cc(C(N)=O)ncc1C` [Compound 153, 4-[[2-Fluoro-6-[2-methoxy-4-(trifluoromethoxy)phenoxy]-4-(trifluoromethyl)benzoyl]amino]-5-methyl-pyridine-2-carboxamide]: 7.66.
As to `NC(=O)c1cc(NC(=O)c2c(Oc3ccc(OC(F)(F)F)cc3)ccc3c2CCC3(F)F)ccn1` [Compound 191, 4-[[1,1-Difluoro-5-[4-(trifluoromethoxy)phenoxy]indane-4-carbonyl]amino]pyridine-2-carboxamide], the pIC50 is 6.92.
On the same count and under the same terms, the result for `COc1c(Oc2ccc(C(F)(F)F)c(F)c2C(=O)Nc2ccc(F)c(C(N)=O)c2)ccc(OC(F)(F)F)c1F` [Compound 219, N-(3-Carbamoyl-4-fluoro-phenyl)-2-fluoro-6-[3-fluoro-2-methoxy-4-(trifluoromethoxy)phenoxy]-3-(trifluoromethyl)benzamide] reads 9.05.

One may read the pIC50 as −log10 of the IC50, conventionally taken in molar units.
